According to patent publication US20030215817A1, “Modulation of gene expression in formation of fatty atherosclerotic lesions” (priority 2003, published 2003):
Structures can show the parent of a compound that is named as a salt.

Assays:
Assay type in all cases: in vivo, rabbit
[1] = tested on: REC1_7 (MspI CACA 282) mRNA; experiment: TOGA analysis, REC1_7
Description: (§1) To perform the studies, New Zealand male rabbits weighing 2.0-2.5 kg (Charles River, Calco, Italy) were used. The rabbits were divided into three groups and maintained in identical experimental conditions: (1) control group (n=15); rabbits fed a cholesterol-rich diet; (2) lercanidipine-treated group (n=15); rabbits fed a cholesterol-rich diet and also treated with lercanidipine (3 mg/kg/week); and (3) (R)-lercanidipine-treated group (n=5); rabbits fed a cholesterol-rich diet and also treated with the (R)-enantiomer of lercanidipine (3 mg/kg/week). After a 2 week period of subcutaneous, once a week, pretreatment with 3 mg/kg/week of lercanidipine or (R)-lercanidipine, the rabbits received a daily cholesterol supplement for up to 8 weeks or 2 weeks, respectively. In the following examples, use of the term “lercanidipine” refers to the racemic mixture of lercanidipine hydrochloride, whereas “(R)-lercanidipine” refers to the (R)-enantiomer of lercanidipine hydrochloride.
(§2) The mRNA from the above-described groups was isolated from aorta at different time points, resulting in the following mRNA samples: (1) Day 0 Control=no administered cholesterol, no lercanidipine; (2) Day 0+lercanidipine=no administered cholesterol, treatment with lercanipidine (2 weeks; 3 mg/kg/week); (3) Day 14 Control=cholesterol diet for two weeks, no lercanidipine; (4) Day 14+lercanidipine=cholesterol diet for two weeks, treatment with lercanidipine (four weeks; 3 mg/kg/week); (5) Week 8 Control=cholesterol diet for 8 weeks, no lercanidipine; and (6) Week 8+lercanidipine=cholesterol diet for 8 weeks, treatment with lercanidipine (10 weeks; 3 mg/kg/week). In addition, Day 14+(R)-lercanidipine mRNA samples were prepared from rabbits given a cholesterol diet for two weeks and treated with 3 mg/kg/week (R)-lercanidipine for four weeks.
(§3) Aorta mRNAs were prepared in the following manner. First, the aortas from each experimental group were retrieved and shredded using a polytron homogenizer. The samples were further homogenized using a teflon pestle, after which the cellular debris, nuclei, and blood cells were pelleted by centrifugation. The supernatants were extracted twice with phenol-chloroform-isoamyl alcohol and once with chloroform-isoamyl alcohol. RNA was then precipitated from the aqueous phase with ethanol. The poly A+ mRNA was prepared using standard methods of polyA selection known in the art (Schriber et al., J. Mol. Biol., 142:93-116 (1980)).
(§4) The isolated mRNA was analyzed using a method of simultaneous sequence-specific identification of mRNAs known as TOGA, described in U.S. Pat. No. 5,459,037 and U.S. Pat. No. 5,807,680, hereby incorporated herein by reference. In a preferred embodiment, the TOGA method further comprised an additional PCR step performed using a mixture of four 5′ PCR primers and cDNA templates prepared from a population of antisense cRNAs. A final PCR step that used a mixture of 256 5′ PCR primers produced PCR products that were cDNA fragments that corresponded to the 3′-region of the starting mRNA population. The produced PCR products were then identified by: (a) the initial 5′ sequence comprising the sequence remainder of the recognition site of the restriction endonuclease used to cut and isolate the 3′ region plus the sequence of the preferably four parsing bases immediately 3′ to the remainder of the recognition site, preferably the sequence of the entire fragment; and (b) the length of the fragment. These two parameters, sequence and fragment length, were used to compare the obtained PCR products to a database of known polynucleotide sequences. Since the length of the obtained PCR products includes known vector sequences at the 5′ and 3′ ends of the insert, the sequence of the insert provided in the sequence listing is shorter than the fragment length that forms part of the digital address.
(§5) The method yields Digital Sequence Tags (DSTs), that is, polynucleotides that are expressed sequence tags of the 3′ end of mRNAs. […]

[2] = tested on: REC1_22 (digital address TGGG 164) mRNA; experiment: TOGA analysis, REC1_22
Description: as §1, §2, §3, §4, §5

[3] = tested on: REC1_31 (digital address TGCA 210) mRNA, mitochondrial genome; experiment: TOGA analysis, REC1_31
Description: as §1, §2, §3, §4, §5

[4] = tested on: REC1_33 (digital address CCGA 96) mRNA, as1_casein gene; experiment: TOGA analysis, REC1_33
Description: as §1, §2, §3, §4, §5

[5] = tested on: REC1_37 (digital address TTCA 264) mRNA, ribosomal protein L15; experiment: TOGA analysis, REC1_37
Description: as §1, §2, §3, §4, §5

[6] = tested on: REC1_24 (digital address CCGG 232) mRNA; experiment: TOGA analysis, REC1_24
Description: as §1, §2, §3, §4, §5

[7] = tested on: REC1_34 (digital address CGGT 209) mRNA; experiment: TOGA analysis, REC1_34
Description: as §1, §2, §3, §4, §5

[8] = tested on: REC1_2 (MspI AATC 108) mRNA; experiment: TOGA analysis, REC1_2
Description: as §1, §2, §3
as §4, with “These two parameters, sequence and fragment length, were used to compare the obtained PCR products to a database of known polynucleotide sequences. Since the length of the obtained PCR products includes known vector sequences at the 5′ and 3′ ends of the insert, the sequence of the insert provided in the sequence listing is shorter than the fragment length that forms part of the digital address.” left out

[9] = tested on: REC1_18 (MspI TGGT 241) mRNA; experiment: TOGA analysis, REC1_18
Description: as §1, §2, §3
as §4, with “These two parameters, sequence and fragment length, were used to compare the obtained PCR products to a database of known polynucleotide sequences. Since the length of the obtained PCR products includes known vector sequences at the 5′ and 3′ ends of the insert, the sequence of the insert provided in the sequence listing is shorter than the fragment length that forms part of the digital address.” left out

[10] = tested on: REC1_1 (MspI AAGC 288) mRNA, TYRO protein tyrosine kinase binding p; experiment: TOGA analysis, REC1_1
Description: as §1, §2, §3, §4, §5

[11] = tested on: REC1_28 (digital address CGGT 101) mRNA, calgizzarin; experiment: TOGA analysis, REC1_28
Description: as §1, §2, §3, §4, §5

[12] = TOGA, hypercholesterolemic plus lercanidipine racemate, eight weeks, H2 (normocholesterolemic)=1.0
[13] = aorta at day 0: no cholesterol, 3 mg/kg/week for 2 weeks
[14] = aorta at day 14 of cholesterol administration, 3 mg/kg/week for 4 weeks
[15] = aorta at day 14 of cholesterol, 3 mg/kg/week for 4 weeks
[16] = aorta at day 14 of cholesterol diet, 3 mg/kg/week for 4 weeks

Compound: COC(=O)C1=C(C)NC(C)=C(C(=O)OC(C)(C)CN(C)CCC(c2ccccc2)c2ccccc2)C1c1cccc([N+](=O)[O-])c1 (racemic) [lercanidipine, lercanidipine hydrochloride]
- level of gene expression (TOGA), 8 Week hypercholesterol + Lercanidipine ([1]; REC1_7, CACA 282, rabbit aorta, 8 weeks cholesterol + lercanidipine): 159
- level of gene expression (TOGA), 14 Day hypercholesterol + Lercanidipine ([1]; REC1_7, CACA 282, rabbit aorta, 14 days cholesterol + lercanidipine): 417
- level of gene expression (TOGA), Normal + Lercanidipine ([1]; REC1_7, CACA 282, rabbit aorta, no cholesterol, lercanidipine): 863
- Relative Abundance Rec1_7, TOGA, F [1, 12]: 0.2
- level of gene expression of REC1_7 (TOGA) [1, 13]: 863
- level of gene expression of REC1_7 (TOGA) [1, 14]: 417
- level of gene expression of REC1_7 (TOGA) ([1]; aorta at week 8 of cholesterol administration, 3 mg/kg/week for 10 weeks): 159
- level of gene expression, 8 Week hypercholesterol + Lercanidipine ([2]; REC1_22 TGGG 164, rabbit aorta, cholesterol 8 weeks): 122
- level of gene expression, 14 Day hypercholesterol + Lercanidipine ([2]; REC1_22 TGGG 164, rabbit aorta, cholesterol 14 days): 194
- level of gene expression, Normal + Lercanidipine ([2]; REC1_22 TGGG 164, rabbit aorta, no cholesterol): 87
- level of gene expression of REC1_22 (TOGA) [2, 13]: 87
- level of gene expression of REC1_22 (TOGA) [2, 14]: 194
- level of gene expression, 8 Week hypercholesterol + Lercanidipine ([3]; REC1_31 TGCA 210, rabbit aorta, cholesterol 8 weeks): 245
- level of gene expression, 14 Day hypercholesterol + Lercanidipine ([3]; REC1_31 TGCA 210, rabbit aorta, cholesterol 14 days): 619
- level of gene expression, Normal + Lercanidipine ([3]; REC1_31 TGCA 210, rabbit aorta, no cholesterol): 464
- level of gene expression of REC1_31 (TOGA) [3, 13]: 464
- level of gene expression of REC1_31 (TOGA) [3, 14]: 619
- level of gene expression, 8 Week hypercholesterol + Lercanidipine ([4]; REC1_33 CCGA 96, rabbit aorta, 8 weeks cholesterol): 156
- level of gene expression, 14 Day hypercholesterol + Lercanidipine ([4]; REC1_33 CCGA 96, rabbit aorta, 14 days cholesterol): 842
- level of gene expression, Normal + Lercanidipine ([4]; REC1_33 CCGA 96, rabbit aorta, no cholesterol): 1094
- level of gene expression of REC1_33 (TOGA) [4, 13]: 1094
- level of gene expression of REC1_33 (TOGA) [4, 14]: 842
- level of gene expression, 8 Week hypercholesterol + Lercanidipine ([5]; REC1_37 TTCA 264, rabbit aorta, cholesterol 8 weeks): 136
- level of gene expression, 14 Day hypercholesterol + Lercanidipine ([5]; REC1_37 TTCA 264, rabbit aorta, cholesterol 14 days): 915
- level of gene expression, Normal + Lercanidipine ([5]; REC1_37 TTCA 264, rabbit aorta, no cholesterol): 605
- level of gene expression of REC1_37 (TOGA) [5, 15]: 915
- level of gene expression of REC1_37 (TOGA) ([5]; aorta at week 8 of cholesterol, 3 mg/kg/week for 10 weeks): 136
- level of gene expression, 8 Week hypercholesterol + Lercanidipine ([6]; REC1_24 CCGG 232, rabbit aorta, 8 weeks cholesterol): 117
- level of gene expression, 14 Day hypercholesterol + Lercanidipine ([6]; REC1_24 CCGG 232, rabbit aorta, 14 days cholesterol): 104
- level of gene expression, Normal + Lercanidipine ([6]; REC1_24 CCGG 232, rabbit aorta, no cholesterol): 122
- level of gene expression of REC1_24 (TOGA) [6, 13]: 122
- level of gene expression of REC1_24 (TOGA) [6, 16]: 104
- level of gene expression, 8 Week hypercholesterol + Lercanidipine ([7]; REC1_34 CGGT 209, rabbit aorta, 8 weeks cholesterol): 203
- level of gene expression, 14 Day hypercholesterol + Lercanidipine ([7]; REC1_34 CGGT 209, rabbit aorta, 14 days cholesterol): 331
- level of gene expression, Normal + Lercanidipine ([7]; REC1_34 CGGT 209, rabbit aorta, no cholesterol): 100
- level of gene expression of REC1_34 (TOGA) [7, 13]: 100
- level of gene expression of REC1_34 (TOGA) [7, 15]: 331
- level of gene expression (TOGA), 8 Week hypercholesterol + Lercanidipine ([8]; REC1_2, AATC 108, rabbit aorta, 8 weeks cholesterol + lercanidipine): 1143
- level of gene expression (TOGA), 14 Day hypercholesterol + Lercanidipine ([8]; REC1_2, AATC 108, rabbit aorta, 14 days cholesterol + lercanidipine): 545
- level of gene expression (TOGA), Normal + Lercanidipine ([8]; REC1_2, AATC 108, rabbit aorta, no cholesterol, lercanidipine): 301
- Relative Abundance Rec1_2, TOGA, F [8, 12]: 6.5
- level of gene expression, 8 Week hypercholesterol + Lercanidipine ([9]; REC1_18 TGGT 241, rabbit aorta, cholesterol 8 weeks): 935
- level of gene expression, 14 Day hypercholesterol + Lercanidipine ([9]; REC1_18 TGGT 241, rabbit aorta, cholesterol 14 days): 112
- level of gene expression, Normal + Lercanidipine ([9]; REC1_18 TGGT 241, rabbit aorta, no cholesterol): 316
- Relative Abundance Rec1_18, TOGA, F [9, 12]: 5.0
- level of gene expression (TOGA), 8 Week hypercholesterol + Lercanidipine ([10]; REC1_1, AAGC 288, rabbit aorta, 8 weeks cholesterol + lercanidipine): 1733
- level of gene expression (TOGA), 14 Day hypercholesterol + Lercanidipine ([10]; REC1_1, AAGC 288, rabbit aorta, 14 days cholesterol + lercanidipine): 753
- level of gene expression (TOGA), Normal + Lercanidipine ([10]; REC1_1, AAGC 288, rabbit aorta, no cholesterol, lercanidipine): 215
- Relative Abundance Rec1_1, TOGA, F [10, 12]: 6.9
- level of gene expression of REC1_1 (TOGA) ([10]; aorta at 8 weeks of cholesterol administration, 3 mg/kg/week for 10 weeks): 1733
- level of gene expression of REC1_1 (TOGA) [10, 13]: 215
- level of gene expression of REC1_1 (TOGA) ([10]; aorta at day 14 of cholesterol treatment, 3 mg/kg/week for 4 weeks): 753
- level of gene expression, 8 Week hypercholesterol + Lercanidipine ([11]; REC1_28 CGGT 101, rabbit aorta, 8 weeks cholesterol): 176
- level of gene expression, 14 Day hypercholesterol + Lercanidipine ([11]; REC1_28 CGGT 101, rabbit aorta, 14 days cholesterol): 189
- level of gene expression, Normal + Lercanidipine ([11]; REC1_28 CGGT 101, rabbit aorta, no cholesterol): 229
- level of gene expression of REC1_28 (TOGA) [11, 13]: 229
- level of gene expression of REC1_28 (TOGA) [11, 16]: 189
